Test results reported in patent publication US10597388B2, “Pyridazinone herbicides” (FMC CORPORATION, priority 2014, dated 2020).

Columns and labels:
Test in all cases: Test C greenhouse herbicide test, pre- and postemergence
Assay type in all cases: in vivo
[1] = tested on: blackgrass (Alopecurus myosuroides)
Method in brief: (§1)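 Two application timings: at sowing into a soil/sand blend, and on 2–18 cm seedlings in peat-vermiculite potting mix. A non-phytotoxic, surfactant-containing solvent carried the compounds. Plants were compared with controls and rated visually on 0–100 after 13–15 d.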

[2] = tested on: barnyardgrass (Echinochloa crus-galli)
Method in brief: as §1

[3] = tested on: morningglory (Ipomoea coccinea)
Method in brief: as §1

[4] = tested on: ryegrass, Italian (Italian ryegrass, Lolium multiflorum)
Method in brief: as §1

[5] = tested on: crabgrass, large (large crabgrass, Digitaria sanguinalis)
Method in brief: as §1

[6] = tested on: wheat (winter wheat, Triticum aestivum)
Method in brief: as §1

[7] = tested on: lambsquarters (Chenopodium album)
Method in brief: as §1

[8] = tested on: pigweed (Amaranthus retroflexus)
Method in brief: as §1

soybean (Glycine max) = tested on: soybean (Glycine max)
Method in brief: as §1

[9] = tested on: velvetleaf (Abutilon theophrasti)
Method in brief: as §1

[10] = tested on: foxtail, giant (giant foxtail, Setaria faberii)
Method in brief: as §1

[11] = tested on: waterhemp (common waterhemp, Amaranthus rudis)
Method in brief: as §1

[12] = tested on: nutsedge, yellow (yellow nutsedge, Cyperus esculentus)
Method in brief: as §1

[13] = tested on: galium (catchweed bedstraw, Galium aparine)
Method in brief: as §1

corn (Zea mays) = tested on: corn (Zea mays)
Method in brief: as §1

[14] = Postemergence, 31 g ai/ha, 0 to 100 scale (0 no effect, 100 complete control)
[15] = Postemergence, 125 g ai/ha, scale 0 to 100, 0 is no effect, 100 is complete control
[16] = Postemergence, 250 g ai/ha, scale 0 to 100, 0 no effect, 100 complete control, 13 to 15 d
[17] = Preemergence, 31 g ai/ha, scale 0 to 100, 0 is no effect, 100 is complete control
[18] = Preemergence, 62 g ai/ha, scale 0 to 100, 0 is no effect, 100 is complete control
[19] = Preemergence, 125 g ai/ha, scale 0 to 100, 0 is no effect, 100 is complete control
[20] = Preemergence, 250 g ai/ha, scale 0 to 100, 0 no effect, 100 complete control
[21] = postemergence, 62 g ai/ha, scale 0 to 100, 0 no effect, 100 complete control

## Cc1nn(C)c(=O)c(-c2ccc(Br)c3ccccc23)c1O [Compound 75]
[1]; [14]
  Blackgrass plant response rating: 5
[1]; [15]
  Plant response rating, Blackgrass: 20
[1]; [16]
  Plant response rating, Blackgrass: 35
[1]; [17]
  Plant response rating, Blackgrass: 20
[1]; [18]
  Plant response rating, Blackgrass: 30
[1]; [19]
  Plant response rating, Blackgrass: 30
[1]; [20]
  Blackgrass plant response rating: 30
[1]; [21]
  Blackgrass plant response rating: 5
[2]; [14]
  Barnyardgrass plant response rating: 25
[2]; [15]
  Plant response rating, Barnyardgrass: 15
[2]; [16]
  Plant response rating, Barnyardgrass: 20
[2]; [17]
  Plant response rating, Barnyardgrass: 5
[2]; [18]
  Plant response rating, Barnyardgrass: 25
[2]; [19]
  Plant response rating, Barnyardgrass: 50
[2]; [20]
  Barnyardgrass plant response rating: 85
[2]; [21]
  Barnyardgrass plant response rating: 25
[3]; [14]
  Morningglory plant response rating: 98
[3]; [15]
  Plant response rating, Morningglory: 100
[3]; [16]
  Plant response rating, Morningglory: 75
[3]; [17]
  Plant response rating, Morningglory: 70
[3]; [18]
  Plant response rating, Morningglory: 85
[3]; [19]
  Plant response rating, Morningglory: 95
[3]; [20]
  Morningglory plant response rating: 100
[3]; [21]
  Morningglory plant response rating: 100
[4]; [14]
  Ryegrass, Italian plant response rating: 80
[4]; [15]
  Plant response rating, Ryegrass, Italian: 85
[4]; [16]
  Plant response rating, Ryegrass, Italian: 85
[4]; [17]
  Plant response rating, Ryegrass, Italian: 90
[4]; [18]
  Plant response rating, Ryegrass, Italian: 90
[4]; [19]
  Plant response rating, Ryegrass, Italian: 90
[4]; [20]
  Ryegrass, Italian plant response rating: 90
[4]; [21]
  Ryegrass, Italian plant response rating: 80
[5]; [14]
  Crabgrass, Large plant response rating: 5
[5]; [15]
  Plant response rating, Crabgrass, Large: 5
[5]; [16]
  Plant response rating, Crabgrass, Large: 20
[5]; [17]
  Plant response rating, Crabgrass, Large: 75
[5]; [18]
  Plant response rating, Crabgrass, Large: 10
[5]; [19]
  Plant response rating, Crabgrass, Large: 25
[5]; [20]
  Crabgrass, Large plant response rating: 50
[5]; [21]
  Crabgrass, Large plant response rating: 10
[6]; [14]
  Wheat plant response rating: 0
[6]; [15]
  Plant response rating, Wheat: 0
[6]; [16]
  Plant response rating, Wheat: 0
[6]; [17]
  Plant response rating, Wheat: 0
[6]; [18]
  Plant response rating, Wheat: 0
[6]; [19]
  Plant response rating, Wheat: 10
[6]; [20]
  Wheat plant response rating: 5
[6]; [21]
  Wheat plant response rating: 0
[7]; [14]
  Lambsquarters plant response rating: 100
[7]; [15]
  Plant response rating, Lambsquarters: 100
[7]; [16]
  Plant response rating, Lambsquarters: 100
[7]; [17]
  Plant response rating, Lambsquarters: 65
[7]; [18]
  Plant response rating, Lambsquarters: 100
[7]; [19]
  Plant response rating, Lambsquarters: 85
[7]; [20]
  Lambsquarters plant response rating: 90
[7]; [21]
  Lambsquarters plant response rating: 100
[8]; [14]
  Pigweed plant response rating: 85
[8]; [15]
  Plant response rating, Pigweed: 100
[8]; [16]
  Plant response rating, Pigweed: 98
[8]; [17]
  Plant response rating, Pigweed: 85
[8]; [18]
  Plant response rating, Pigweed: 100
[8]; [19]
  Plant response rating, Pigweed: 100
[8]; [20]
  Pigweed plant response rating: 100
[8]; [21]
  Pigweed plant response rating: 95
Soybean (Glycine max); [14]
  Soybean plant response rating: 20
Soybean (Glycine max); [15]
  Plant response rating, Soybean: 35
Soybean (Glycine max); [16]
  Plant response rating, Soybean: 10
Soybean (Glycine max); [17]
  Plant response rating, Soybean: 0
Soybean (Glycine max); [18]
  Plant response rating, Soybean: 20
Soybean (Glycine max); [19]
  Plant response rating, Soybean: 45
Soybean (Glycine max); [20]
  Soybean plant response rating: 55
Soybean (Glycine max); [21]
  Soybean plant response rating: 35
[9]; [14]
  Velvetleaf plant response rating: 70
[9]; [15]
  Plant response rating, Velvetleaf: 85
[9]; [16]
  Plant response rating, Velvetleaf: 85
[9]; [17]
  Plant response rating, Velvetleaf: 35
[9]; [18]
  Plant response rating, Velvetleaf: 85
[9]; [19]
  Plant response rating, Velvetleaf: 90
[9]; [20]
  Velvetleaf plant response rating: 98
[9]; [21]
  Velvetleaf plant response rating: 50
[10]; [14]
  Foxtail, Giant plant response rating: 5
[10]; [15]
  Plant response rating, Foxtail, Giant: 5
[10]; [16]
  Plant response rating, Foxtail, Giant: 10
[10]; [17]
  Plant response rating, Foxtail, Giant: 5
[10]; [18]
  Plant response rating, Foxtail, Giant: 45
[10]; [19]
  Plant response rating, Foxtail, Giant: 70
[10]; [20]
  Foxtail, Giant plant response rating: 75
[10]; [21]
  Foxtail, Giant plant response rating: 5
[11]; [14]
  Waterhemp plant response rating: 100
[11]; [15]
  Plant response rating, Waterhemp: 100
[11]; [16]
  Plant response rating, Waterhemp: 100
[11]; [17]
  Plant response rating, Waterhemp: 100
[11]; [18]
  Plant response rating, Waterhemp: 100
[11]; [19]
  Plant response rating, Waterhemp: 100
[11]; [20]
  Waterhemp plant response rating: 100
[11]; [21]
  Waterhemp plant response rating: 100
[12]; [14]
  Nutsedge, Yellow plant response rating: 25
[12]; [15]
  Plant response rating, Nutsedge, Yellow: 50
[12]; [16]
  Plant response rating, Nutsedge, Yellow: 70
[12]; [17]
  Plant response rating, Nutsedge, Yellow: 15
[12]; [18]
  Plant response rating, Nutsedge, Yellow: 40
[12]; [19]
  Plant response rating, Nutsedge, Yellow: 65
[12]; [20]
  Nutsedge, Yellow plant response rating: 75
[12]; [21]
  Nutsedge, Yellow plant response rating: 20
[13]; [14]
  Galium plant response rating: 90
[13]; [15]
  Plant response rating, Galium: 90
[13]; [16]
  Plant response rating, Galium: 90
[13]; [17]
  Plant response rating, Galium: 90
[13]; [18]
  Plant response rating, Galium: 90
[13]; [19]
  Plant response rating, Galium: 90
[13]; [20]
  Galium plant response rating: 98
[13]; [21]
  Galium plant response rating: 90
Corn (Zea mays); [14]
  Corn plant response rating: 5
Corn (Zea mays); [15]
  Plant response rating, Corn: 10
Corn (Zea mays); [16]
  Plant response rating, Corn: 10
Corn (Zea mays); [17]
  Plant response rating, Corn: 0
Corn (Zea mays); [18]
  Plant response rating, Corn: 5
Corn (Zea mays); [19]
  Plant response rating, Corn: 0
Corn (Zea mays); [20]
  Corn plant response rating: 10
Corn (Zea mays); [21]
  Corn plant response rating: 5
